# Measured values reported in patent US20240285724A1, “METHODS AND COMPOSITIONS FOR TREATING OCULAR DISORDERS AND DISEASES” (ONL Therapeutics, Inc., priority 2021, published 2024).
# Residues, ends and D or L forms follow the SMILES beside them.
# Legend:
# [1] = Ocular tissue concentration of ONL1204 after intravitreal injection in rabbit eye (LC-MS/MS); details: rabbit vitreous humor; single dose 0.1 mg/eye IVT, days 0 to 168
# Method: Standards and blanks were vortex mixed. […] Two hundred (200) uL of water was added.
# The samples were then vortex mixed for 5 minutes.
# The samples were dried with nitrogen at 35° C.
# [2] = test system: retinal pigment epithelial cell death; assay: Sodium iodate (NaIO3) challenge study, lesion area by fluorescein angiography; format: in vivo; details: rabbit
# Method: The resulting area was then measured.
structure (smiles),measurement,setting,value
CC[C@H](C)[C@H](NC(=O)[C@H](Cc1ccc(O)cc1)NC(=O)[C@H](CC(N)=O)NC(=O)[C@@H](NC(=O)[C@H](C)NC(=O)CNC(=O)[C@H](CC(C)C)NC(=O)[C@H](Cc1ccc(O)cc1)NC(=O)[C@@H](NC(=O)[C@H](Cc1cnc[nH]1)NC(=O)[C@@H](N)Cc1cnc[nH]1)[C@@H](C)CC)C(C)C)C(=O)N[C@@H](Cc1ccc(O)cc1)C(N)=O [ONL1204] (H-HHIYLGAVNYIY-NH2),t1/2 (half-life in the vitreous),[1],279.8 days
same,Lesion size vs negative control,"[2]; 25 ug per eye IVT on Day 0, NaIO3 challenge Day 4",significantly lower than negative control
same,Lesion size vs negative control,"[2]; 100 ug per eye IVT on Day 0, NaIO3 challenge Day 4",significantly lower than negative control
same,Lesion size vs negative control,"[2]; 100 ug per eye IVT on Day 0, NaIO3 challenge Day 14",significantly smaller lesion size then both negative controls and those treated with 25 ug
same,Lesion size vs negative control,"[2]; 100 ug per eye IVT on Day 0, NaIO3 challenge Day 28",significantly smaller lesion size then both negative control animals and those treated with 25 ug
